The results in this text go back to patent US20230183215A1, “Notch Inhibitors and Uses Thereof” (StemSynergy Therapeutics, Inc., priority 2020, published 2023).

As a reminder, the IC50 is the concentration at which inhibition is half-maximal. Read a high IC50 as a need for much substance.

The target of the experiment is T1, Notch1 (Homo sapiens, UniProt P46531).
T1 construct: pLV[Tet]-Puro-TRE3G>Notch1-ICD; expressed in transfected cells; host or cells: 293A cells
Nature of the experiment: Notch1 Reporter Assay (CSL-responsive luciferase, doxycycline-induced Notch-ICD in 293A cells). It counts as cell-based. Conditions: 25 ng/mL Dox, 24 h, luciferase normalized to cell viability. The procedure: 293A cells expressing 1) pCMV-Tet-On 3G, 2) pLV[Tet]-Puro-TRE3G>Notch1-ICD, 3) pLV[Tet]-Puro-TRE3G>Notch2-ICD, 4) pLV[Tet]-Puro-TRE3G>Notch3-ICD, and 5) pCSL-RElement-Luc were used. When Doxycycline is added, the Tet-ON gene activates expression of hNotch1ICD, which together with endogenous NTC components binds to CSL responsive elements (pCSL-RElement-Luc) and expresses luciferase. 1×10^4 cells are plated in 100 μL (96-well format). 24 h later, compounds (10 mM stock in DMSO) are diluted in DMSO to 200×, then added (5 ul into 1 mL) to cell culture media containing 50 ng/mL Dox. This is then added 1:1 to cells. Final DMSO=0.25%, Dox=25 ng/mL. After 24 h, media is discarded, and cells are lysed in passive lysis buffer (Promega). Cells are rocked at room temperature for 15 min and then lysate is divided for luciferase assay (Luciferase Assay System, Promega) and cell viability (CellTiter Glo 2.0, Promega). Raw luciferase is normalized to cell viability, and then scaled to DMSO wells. Results are analyzed and IC50's are determined in GraphPad by nonlinear regression curve fitting (4 parameter) of dose response curves.
Background: In a reporter assay the amount or activity of a reporter protein is the signal.

Each structure is given as a SMILES string. Where a name gives a salt, the structure may show the parent alone.

T1 sequence (P46531 1754-2555 limits assumed): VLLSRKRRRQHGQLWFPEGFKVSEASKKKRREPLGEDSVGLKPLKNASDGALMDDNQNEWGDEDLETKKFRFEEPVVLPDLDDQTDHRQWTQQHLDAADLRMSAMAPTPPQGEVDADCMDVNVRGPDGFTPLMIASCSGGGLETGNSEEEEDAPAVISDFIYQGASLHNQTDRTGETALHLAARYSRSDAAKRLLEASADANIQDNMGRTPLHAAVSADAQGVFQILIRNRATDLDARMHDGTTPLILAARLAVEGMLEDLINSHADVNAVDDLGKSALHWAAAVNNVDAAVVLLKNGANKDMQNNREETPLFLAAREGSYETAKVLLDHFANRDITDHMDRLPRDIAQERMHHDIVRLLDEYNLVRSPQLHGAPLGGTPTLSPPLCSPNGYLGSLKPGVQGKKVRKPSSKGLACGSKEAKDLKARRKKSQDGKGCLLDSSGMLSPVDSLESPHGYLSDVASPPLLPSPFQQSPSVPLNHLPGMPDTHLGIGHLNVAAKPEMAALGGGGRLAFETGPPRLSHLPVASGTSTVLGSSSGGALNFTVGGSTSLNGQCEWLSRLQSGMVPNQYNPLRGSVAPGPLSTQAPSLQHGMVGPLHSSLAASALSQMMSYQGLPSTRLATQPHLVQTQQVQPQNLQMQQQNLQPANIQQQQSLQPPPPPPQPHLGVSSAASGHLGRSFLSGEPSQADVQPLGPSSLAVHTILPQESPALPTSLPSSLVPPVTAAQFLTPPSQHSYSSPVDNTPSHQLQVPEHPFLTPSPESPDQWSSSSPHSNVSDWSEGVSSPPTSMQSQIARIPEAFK

Regarding `COc1cc(-c2cc(C(F)(F)F)cc3c2n(C)c(=O)n3CC(=O)Nc2cccc(S(C)(=O)=O)c2)cc(F)c1OCc1nnc[nH]1` [SSTN-501, 2-(4-(4-((4H-1,2,4-triazol-3-yl)methoxy)-3-fluoro-5-methoxyphenyl)-3-methyl-2-oxo-6-(trifluoromethyl)-2,3-dihydro-1H-benzo[d]imidazol-1-yl)-N-(3-(methylsulfonyl)phenyl)acetamide hydrochloride], the IC50 was found to be 13 µM. In other words, the double-digit micromolar range.

Turning to `COc1cc(-c2cc(C(F)(F)F)cc3c2n(C)c(=O)n3CC(=O)Nc2ccn(C)n2)cc(F)c1OCc1nnc[nH]1` [SSTN-509, 2-(4-(4-((4H-1,2,4-triazol-3-yl)methoxy)-3-fluoro-5-methoxyphenyl)-3-methyl-2-oxo-6-(trifluoromethyl)-2,3-dihydro-1H-benzo[d]imidazol-1-yl)-N-(1-methyl-1H-pyrazol-3-yl)acetamide hydrochloride], the IC50 is 16.1 µM. With `COc1cc(-c2cc(C(F)(F)F)cc3c2n(C)c(=O)n3CC(=O)N2CCN(C)CC2)cc(F)c1OCc1nnc[nH]1` [SSTN-544, 4-(4-((4H-1,2,4-triazol-3-yl)methoxy)-3-fluoro-5-methoxyphenyl)-3-methyl-1-(2-(4-methylpiperazin-1-yl)-2-oxoethyl)-6-(trifluoromethyl)-1,3-dihydro-2H-benzo[d]imidazol-2-one] the figure was 51.1 µM; with `COc1cc(-c2cc(C(F)(F)F)cc3c2n(C)c(=O)n3CC(=O)Nc2cccc(C#N)c2)cc(F)c1OCc1nnc[nH]1` [SSTN-545, 2-(4-(4-((4H-1,2,4-triazol-3-yl)methoxy)-3-fluoro-5-methoxyphenyl)-3-methyl-2-oxo-6-(trifluoromethyl)-2,3-dihydro-1H-benzo[d]imidazol-1-yl)-N-(3-cyanophenyl)acetamide], 5.8 µM.

As for `COc1cc(-c2cc(C(F)(F)F)cc3c2n(C)c(=O)n3CC(=O)Nc2cccc(CN3CCOCC3)c2)cc(F)c1OCc1nnc[nH]1` [SSTN-575, 2-(4-(4-((4H-1,2,4-triazol-3-yl)methoxy)-3-fluoro-5-methoxyphenyl)-3-methyl-2-oxo-6-(trifluoromethyl)-2,3-dihydro-1H-benzo[d]imidazol-1-yl)-N-(3-(morpholinomethyl)phenyl)acetamide], the IC50 worked out at 12.5 µM. Take `Cn1c(=O)n(CC(=O)N(Cc2nnc[nH]2)c2ccc(F)cc2)c2cc(C(F)(F)F)cc(-c3ccc(OCc4nnc[nH]4)c(F)c3)c21` [SSTN-592, 2-(4-(4-((4H-1,2,4-triazol-3-yl)methoxy)-3-fluorophenyl)-3-methyl-2-oxo-6-(trifluoromethyl)-2,3-dihydro-1H-benzo[d]imidazol-1-yl)-N-((4H-1,2,4-triazol-3-yl)methyl)-N-(4-fluorophenyl)acetamide]: the half-inhibitory concentration (IC50) was 14.8 µM.

Compound `Cn1c(=O)n(CC(=O)N(Cc2nnc[nH]2)c2ccc(F)cc2)c2cc(C(F)(F)F)cc(-c3cc(Cl)c(OCc4nnc[nH]4)c(Cl)c3)c21` [SSTN-594, 2-(4-(4-((4H-1,2,4-triazol-3-yl)methoxy)-3,5-dichlorophenyl)-3-methyl-2-oxo-6-(trifluoromethyl)-2,3-dihydro-1H-benzo[d]imidazol-1-yl)-N-((4H-1,2,4-triazol-3-yl)methyl)-N-(4-fluorophenyl)acetamide] came in with an IC50 of 4.5 µM. This IC50 lies about 3.3-fold lower than the previous one. Compound `Cn1c(=O)n(CC(=O)Nc2ccc(F)cc2)c2cc(C(F)(F)F)cc(-c3ccc(OCc4nnc[nH]4)c(F)c3)c21` [SSTN-597, 2-(4-(4-((4H-1,2,4-triazol-3-yl)methoxy)-3-fluorophenyl)-3-methyl-2-oxo-6-(trifluoromethyl)-2,3-dihydro-1H-benzo[d]imidazol-1-yl)-N-(4-fluorophenyl)acetamide] displayed a half-maximal inhibitory concentration (IC50) of 8.1 µM. In turn, `Cn1c(=O)n(CC(=O)Nc2ccc(F)cc2)c2cc(C(F)(F)F)cc(-c3cc(Cl)c(OCc4nnc[nH]4)c(Cl)c3)c21` [SSTN-599, 2-(4-(4-((4H-1,2,4-triazol-3-yl)methoxy)-3,5-dichlorophenyl)-3-methyl-2-oxo-6-(trifluoromethyl)-2,3-dihydro-1H-benzo[d]imidazol-1-yl)-N-(4-fluorophenyl)acetamide] yielded an IC50 of 13.9 µM. `COc1cc(-c2cc(C)cc3c2n(C)c(=O)n3CC(=O)Nc2ccc(F)cc2)cc(F)c1OCc1nnc[nH]1` [SSTN-606, 2-(4-(4-((4H-1,2,4-triazol-3-yl)methoxy)-3-fluoro-5-methoxyphenyl)-3,6-dimethyl-2-oxo-2,3-dihydro-1H-benzo[d]imidazol-1-yl)-N-(4-fluorophenyl)acetamide hydrochloride salt] returned an IC50 of 15.3 µM. `COc1cncc(NC(=O)Cn2c(=O)n(C)c3c(-c4cc(F)c(OCc5nnc[nH]5)c(OC)c4)cc(C(F)(F)F)cc32)c1` [SSTN-611, 2-(4-(4-((4H-1,2,4-triazol-3-yl)methoxy)-3-fluoro-5-methoxyphenyl)-3-methyl-2-oxo-6-(trifluoromethyl)-2,3-dihydro-1H-benzo[d]imidazol-1-yl)-N-(5-methoxypyridin-3-yl)acetamide] had an IC50 of 20.9 µM.

For `COc1ccc(NC(=O)Cn2c(=O)n(C)c3c(-c4cc(F)c(OCc5nnc[nH]5)c(OC)c4)cc(C(F)(F)F)cc32)cn1` [SSTN-613, 2-(4-(4-((4H-1,2,4-triazol-3-yl)methoxy)-3-fluoro-5-methoxyphenyl)-3-methyl-2-oxo-6-(trifluoromethyl)-2,3-dihydro-1H-benzo[d]imidazol-1-yl)-N-(6-methoxypyridin-3-yl)acetamide], half-maximal inhibition (IC50) required 9.2 µM. Against the preceding compound, the IC50 is about 2.3-fold lower.

In turn, `COc1cc(-c2cc(C(F)(F)F)cc3c2n(C)c(=O)n3CC(=O)Nc2cncc(C(F)(F)F)c2)cc(F)c1OCc1nnc[nH]1` [SSTN-614, 2-(4-(4-((4H-1,2,4-triazol-3-yl)methoxy)-3-fluoro-5-methoxyphenyl)-3-methyl-2-oxo-6-(trifluoromethyl)-2,3-dihydro-1H-benzo[d]imidazol-1-yl)-N-(5-(trifluoromethyl)pyridin-3-yl)acetamide] came in with an IC50 of 3.4 µM. Against the preceding compound, the IC50 is about 2.7-fold lower. `COc1cc(-c2cc(F)cc3c2n(C)c(=O)n3CC(=O)N(C)c2ccc(Cl)cc2)cc(F)c1OCc1nc[nH]n1` [compound 384, 2-(4-(4-((1H-1,2,4-triazol-3-yl)methoxy)-3-fluoro-5-methoxyphenyl)-6-fluoro-3-methyl-2-oxo-2,3-dihydro-1H-benzo[d]imidazol-1-yl)-N-(4-chlorophenyl)-N-methylacetamide hydrochloride] came in with an IC50 of 14.2 µM.

Take `COc1cc(-c2cc(F)cc3c2n(C)c(=O)n3CC(=O)N(C)c2ccc(F)cc2)cc(F)c1OCc1nnc[nH]1` [compound 425, 2-(4-(4-((4H-1,2,4-triazol-3-yl)methoxy)-3-fluoro-5-methoxyphenyl)-6-fluoro-3-methyl-2-oxo-2,3-dihydro-1H-benzo[d]imidazol-1-yl)-N-(4-fluorophenyl)-N-methylacetamide hydrochloride]: the IC50 came out at 33.5 µM. This IC50 lies about 2.4-fold higher than the previous one.
